These results are taken from patent US10821115B2, “Compounds that inhibit Mcl-1 protein” (priority 2017, dated 2020).

In test [1] the target is recombinant human Mcl-1 (residues 171-327) / Bim interaction (Homo sapiens (Human), UniProt Q07820). The test is described as follows: biochemical. The class given is binding. The following applies: read-out: Mcl-1 HTRF IC50.
Test [2] deals with human multiple myeloma cell line, OPM-2. The test is described as follows: Cell viability assay (OPM-2 10 FBS), CellTiter-Glo. The class given is cell-based. Put shortly:
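IC50 values come from 4-parameter logistic fits of luminescence signals reflecting cell viability. Treatment lasted 16 h at 37 °C in complete medium with 10% FBS, starting from 3000 cells/well.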

The mark [3] stands for this setting: TR-FRET, Mcl-1(171-327) / biotin-Bim (51-76).
Where [4] appears, read: Homo sapiens, OPM-2, 16 h, read-out: OPM-2 10% FBS IC50 IP, OPM-2 cells, 10% FBS, 16 h, CellTiter-Glo.
[5] abbreviates: read-out: OPM-2 10% FBS IC50 IP, OPM-2 cells, 10% FBS, 16 h, CellTiter-Glo.
[6] abbreviates: 0.1 nM Mcl-1(171-327), 0.05 nM biotin-Bim (51-76).
Where [7] appears, read: Homo sapiens, OPM-2, 16 h, read-out: OPM-2 10% FBS IC50 IP, OPM-2 cells, 10% FBS, 16 h incubation.

Like-named read-outs stand apart in the source and are kept apart here.

recombinant human Mcl-1 (residues 171-327) / Bim interaction, sequence (Q07820 171-327): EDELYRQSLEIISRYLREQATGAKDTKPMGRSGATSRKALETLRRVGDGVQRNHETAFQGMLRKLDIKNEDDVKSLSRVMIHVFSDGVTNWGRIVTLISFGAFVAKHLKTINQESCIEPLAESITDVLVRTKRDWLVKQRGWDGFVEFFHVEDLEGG

Regarding `CO[C@]1(CCN2CCN(C)C(=O)C2)/C=C/C[C@H](C)[C@@H](C)S(=O)(=O)NC(=O)c2ccc3c(c2)N(C[C@@H]2CC[C@H]21)C[C@@]1(CCCc2cc(Cl)ccc21)CO3` [Example 100415, (1S,3′R,6′R,7′R,8′E,11′S,12′R)-6-chloro-7′-methoxy-11′,12′-dimethyl-7′-(2-(4-methyl-3-oxo-1-piperazinyl)ethyl)-3,4-dihydro-2H,15′H-spiro[naphthalene-1,22′-[20]oxa[13]thia[1,14]diazatetracyclo [14.7.2.0~3,6~.0~19,24~]pentacosa[8,16,18,24]tetraen]-15′-one 13′,13′-dioxide], the IC50 was determined as 1.95 nM in test [1] (setting [3]) and 2280 nM in test [2] (setting [4]).

Turning to `CO[C@@]1(C)/C=C/C[C@H](C)[C@@H](CCO)S(=O)(=O)NC(=O)c2ccc3c(c2)N(C[C@@H]2CC[C@H]21)C[C@@]1(CCCc2cc(Cl)ccc21)CO3` (single isomer, unassigned) [Example 100596], the IC50 is 0.229 nM in test [1] (setting [3]) and 186 nM in test [2] (setting [5]).

Regarding `CO[C@@]1(C)/C=C/C[C@H](C)[C@@H](CCO)S(=O)(=O)NC(=O)c2ccc3c(c2)N(C[C@@H]2CC[C@H]21)C[C@@]1(CCCc2cc(Cl)ccc21)CO3` (single isomer, unassigned) [Example 100593], the figures for the IC50 in test [1] (setting [3]) and in test [2] (setting [4]) were 0.464 nM and 215 nM, respectively.

With `C[C@@H]1[C@@H](C)C/C=C/[C@](O)(c2nccn2C)[C@@H]2CC[C@H]2CN2C[C@@]3(CCCc4cc(Cl)ccc43)COc3ccc(cc32)C(=O)NS1(=O)=O` [Example 100186, (1S,3′R,6′R,7′R,8′E,11′S,12′R)-6-chloro-7′-hydroxy-11′,12′-dimethyl-7′-(1-methyl-1H-imidazol-2-yl)-3,4-dihydro-2H,15′H-spiro[naphthalene-1,22′-[20]oxa[13]thia[1,14]diazatetracyclo [14.7.2.0~3,6~.0~19,24~]pentacosa[8,16,18,24]tetraen]-15′-one 13′,13′-dioxide], the IC50 in test [1] (setting [3]) was 0.377 nM; in test [2] (setting [4]), 312 nM.

As for `COc1ccncc1[C@]1(O)/C=C/C[C@H](C)[C@@H](C)S(=O)(=O)NC(=O)c2ccc3c(c2)N(C[C@@H]2CC[C@H]21)C[C@@]1(CCCc2cc(Cl)ccc21)CO3` (single isomer, unassigned) [Example 100557], the results for the IC50 in test [1] (setting [3]) and in test [2] (setting [4]) were 0.093 nM and 299 nM, respectively.

As to `C[C@@H]1[C@@H](C)C/C=C/[C@@](O)(c2cccnn2)[C@@H]2CC[C@H]2CN2C[C@@]3(CCCc4cc(Cl)ccc43)COc3ccc(cc32)C(=O)NS1(=O)=O` (single isomer, unassigned) [Example 100348], the IC50 in test [1] (setting [3]) was found to be 0.135 nM; in test [2] (setting [4]), 125 nM.

As for `C[C@@H]1[C@@H](C)C/C=C/[C@@](O)(C=O)[C@@H]2CC[C@H]2CN2C[C@@]3(CCCc4cc(Cl)ccc43)COc3ccc(cc32)C(=O)NS1(=O)=O` [Example 100291, (1S,3′R,6′R,7′S,8′E,11′S,12′R)-6-chloro-7′-hydroxy-11′,12′-dimethyl-15′-oxo-3,4-dihydro-2H-spiro[naphthalene-1,22′-[20]oxa[13]thia[1,14]diazatetracyclo [14.7.2.0~3,6~.0~19,24~]pentacosa[8,16,18,24]tetraene]-7′-carbaldehyde 13′,13′-dioxide], the IC50 amounted to 0.137 nM in test [1] (setting [3]) and 281 nM in test [2] (setting [4]).

As for `CC#C[C@]1(O)CCC[C@H](C)[C@@H](C)S(=O)(=O)NC(=O)c2ccc3c(c2)N(C[C@@H]2CC[C@H]21)C[C@@]1(CCCc2cc(Cl)ccc21)CO3` [Example 100268, (1S,3′R,6′R,7′S,11′S,12′R)-6-chloro-7′-hydroxy-11′,12′-dimethyl-7′-(1-propyn-1-yl)-3,4-dihydro-2H,15′H-spiro[naphthalene-1,22′-[20]oxa[13]thia[1,14]diazatetracyclo [14.7.2.0~3,6~.0~19,24~]pentacosa[16,18,24]trien]-15′-one 13′,13′-dioxide], the figures for the IC50 in test [1] and in test [2] (setting [5]) were 3.44 nM and 3810 nM, respectively.

Consider `CCO[C@@]1(CN2CCN3CCOC[C@@H]3C2)/C=C/C[C@H](C)[C@@H](C)S(=O)(=O)NC(=O)c2ccc3c(c2)N(C[C@@H]2CC[C@H]21)C[C@@]1(CCCc2cc(Cl)ccc21)CO3` [Example 101, (1S,3′R,6′R,7′S,8′E,11′S,12′R)-6-chloro-7′-ethoxy-7′-((9aS)-hexahydropyrazino[2,1-c][1,4]oxazin-8(1H)-ylmethyl)-11′,12′-dimethyl-3,4-dihydro-2H,15′H-spiro[naphthalene-1,22′-[20]oxa[13]thia[1,14]diazatetracyclo [14.7.2.0~3,6~.0~19,24~]pentacosa[8,16,18,24]tetraen]-15′-one 13′,13′-dioxide], for which the results for the IC50 in test [1] (setting [6]) and in test [2] (setting [7]) were 0.196 nM and 263 nM, respectively.

Regarding `CC(C)O[C@]1(CN2CCN3CCOC[C@@H]3C2)/C=C/C[C@H](C)[C@@H](C)S(=O)(=O)NC(=O)c2ccc3c(c2)N(C[C@@H]2CC[C@H]21)C[C@@]1(CCCc2cc(Cl)ccc21)CO3` [Example 47, (1S,3′R,6′R,7′R,8′E,11′S,12′R)-6-chloro-7′-((9aS)-hexahydropyrazino[2,1-c][1,4]oxazin-8(1H)-ylmethyl)-11′,12′-dimethyl-7′-(1-methylethoxy)-3,4-dihydro-2H,15′H-spiro[naphthalene-1,22′-[20]oxa[13]thia[1,14]diazatetracyclo [14.7.2.0~3,6~.0~19,24~]pentacosa[8,16,18,24]tetraen]-15′-one 13′,13′-dioxide], the figures for the IC50 in test [1] (setting [6]) and in test [2] (setting [7]) were 0.131 nM and 285 nM, respectively.

Regarding `COC(=O)C[C@]1(O)/C=C/C[C@H](C)[C@@H](C)S(=O)(=O)NC(=O)c2ccc3c(c2)N(C[C@@H]2CC[C@H]21)C[C@@]1(CCCc2cc(Cl)ccc21)CO3` [Example 100288, methyl ((1S,3′R,6′R,7′S,8′E,11′S,12′R)-6-chloro-7′-hydroxy-11′,12′-dimethyl-13′,13′-dioxido-15′-oxo-3,4-dihydro-2H-spiro[naphthalene-1,22′-[20]oxa[13]thia[1,14]diazatetracyclo [14.7.2.0~3,6~.0~19,24~]pentacosa[8,16,18,24]tetraen]-7′-yl)acetate], the IC50 in test [1] (setting [3]) was 0.103 nM; in test [2] (setting [4]), 89 nM.

Turning to `CO[C@]1(CN2CCN(C)CC2)/C=C/[C@H](C)[C@H](C)CS(=O)(=O)NC(=O)c2ccc3c(c2)N(C[C@@H]2CC[C@H]21)C[C@@]1(CCCc2cc(Cl)ccc21)CO3` [Example 160, (1S,3′R,6′R,7′R,8′E,10′S,11′S)-6-chloro-7′-methoxy-10′,11′-dimethyl-7′-((4-methyl-1-piperazinyl)methyl)-3,4-dihydro-2H,15′H-spiro[naphthalene-1,22′-[20]oxa[13]thia[1,14]diazatetracyclo [14.7.2.0~3,6~.0~19,24~]pentacosa[8,16,18,24]tetraen]-15′-one 13′,13′-dioxide], the IC50 in test [1] (setting [6]) came to 0.221 nM; in test [2] (setting [7]), 148 nM.

Regarding `CO[C@@]1(C2SCCCS2)CCC[C@H](C)[C@@H](C)S(=O)(=O)NC(=O)c2ccc3c(c2)N(C[C@@H]2CC[C@H]21)C[C@@]1(CCCc2cc(Cl)ccc21)CO3` [Example 100249, (1S,3′R,6′R,7′S,11′S,12′R)-6-chloro-7′-(1,3-dithian-2-yl)-7′-methoxy-11′,12′-dimethyl-3,4-dihydro-2H,15′H-spiro[naphthalene-1,22′-[20]oxa[13]thia[1,14]diazatetracyclo [14.7.2.0~3,6~.0~19,24~]pentacosa[16,18,24]trien]-15′-one 13′,13′-dioxide], the 50% inhibitory concentration (IC50) in test [1] (setting [3]) came out at 2.99 nM; in test [2] (setting [4]), 2270 nM.

In the case of `CO[C@@]1(CN2CCN(c3ccccn3)CC2)/C=C/C[C@H](C)[C@@H](C)S(=O)(=O)NC(=O)c2ccc3c(c2)N(C[C@@H]2CC[C@H]21)C[C@@]1(CCCc2cc(Cl)ccc21)CO3` [Example 252, (1S,3′R,6′R,7′S,8′E,11′S,12′R)-6-chloro-7′-methoxy-11′,12′-dimethyl-7′-((4-(2-pyridinyl)-1-piperazinyl)methyl)-3,4-dihydro-2H,15′H-spiro[naphthalene-1,22′-[20]oxa[13]thia[1,14]diazatetracyclo [14.7.2.0~3,6~.0~19,24~]pentacosa[8,16,18,24]tetraen]-15′-one 13′,13′-dioxide], the half-inhibitory concentration (IC50) in test [1] (setting [6]) came to 1.38 nM; in test [2] (setting [7]) it was 1800 nM.

With `CO[C@@]1(C[C@@H](O)C2CC2)/C=C/C[C@H](C)[C@@H](C)S(=O)(=O)NC(=O)c2ccc3c(c2)N(C[C@@H]2CC[C@H]21)C[C@@]1(CCCc2cc(Cl)ccc21)CO3` (racemic) [Example 100437, (1S,3′R,6′R,7′S,8′E,11′S,12′R)-6-chloro-7′-((2R)-2-cyclopropyl-2-hydroxyethyl)-7′-methoxy-11′,12′-dimethyl-3,4-dihydro-2H,15′H-spiro[naphthalene-1,22′-[20]oxa[13]thia[1,14]diazatetracyclo [14.7.2.0~3,6~.0~19,24~]pentacosa[8,16,18,24]tetraen]-15′-one 13′,13′-dioxide], the results for the IC50 in test [1] (setting [3]) and in test [2] (setting [4]) were 0.073 nM and 531 nM, respectively.

As to `CO[C@@]1(CN2CCN(Cc3nc(C)no3)CC2)/C=C/C[C@H](C)[C@@H](C)S(=O)(=O)NC(=O)c2ccc3c(c2)N(C[C@@H]2CC[C@H]21)C[C@@]1(CCCc2cc(Cl)ccc21)CO3` [Example 317, (1S,3′R,6′R,7′S,8′E,11′S,12′R)-6-chloro-7′-methoxy-11′,12′-dimethyl-7′-((4-((3-methyl-1,2,4-oxadiazol-5-yl)methyl)-1-piperazinyl)methyl)-3,4-dihydro-2H,15′H-spiro[naphthalene-1,22′-[20]oxa[13]thia[1,14]diazatetracyclo [14.7.2.0~3,6~.0~19,24~]pentacosa[8,16,18,24]tetraen]-15′-one 13′,13′-dioxide], the IC50 in test [1] (setting [6]) turned out to be 0.186 nM; in test [2] (setting [7]) it was 88 nM.
